Reference: patent US7915402B2, “Antioxidant inflammation modulators: oleanolic acid derivatives with saturation in the C-ring” (Reata Pharmaceuticals, Inc., priority 2008, dated 2011)
Where “and” joins values, the source holds several entries; their conditions need not be identical. Equal entries are not always repeated.

Experiments:
[1] = system: thioredoxin reductase-1 (TrxR1); assay: Nrf2 target gene induction, TrxR1 mRNA (qPCR); format: cell-based, human; conditions: MDA-MB-435 cells, 16 hours
Protocol: FIG. 21. Induction of HO-1, TrxR1 and γ-GCS. MDA-MB-435 human melanoma cells were treated with vehicle (DMSO) or the indicated compounds and concentrations for 16 hours. HO-1, thioredoxin reductase-1 (TrxR1), and γ-glutamylcysteine synthetase (γ-GCS) mRNA levels were quantified using qPCR and were normalized relative to a DMSO-treated sample run in parallel. Values are averages of duplicate wells.
FIG. 22. Induction of TrxR1. MDA-MB-435 human melanoma cells were treated with vehicle (DMSO) or the indicated compounds and concentrations for 16 hours. Thioredoxin reductase-1 (TrxR1) mRNA levels were quantified using qPCR and were normalized relative to a DMSO-treated sample run in parallel. Values are averages of duplicate wells. Compounds 401, 402-19 and 402-53 are comparison compounds (see Example 1).
Nrf2 target gene induction. MDA-MB-435 human melanoma cells were treated with vehicle (DMSO) or the indicated compounds and concentrations for 16 hours. HO-1, thioredoxin reductase-1 (TrxR1), γ-glutamylcysteine synthetase (γ-GCS), and ferritin heavy chain mRNA levels were quantified using qPCR and were normalized relative to a DMSO-treated sample run in parallel. Values are averages of duplicate wells. Primer sequences are as follows.

[2] = Plasma pharmacokinetics after oral dosing in monkeys; format: in vivo; conditions: cynomolgus monkey; for Mean Maximum 404-02 Plasma Concentration (nM) ± SEM / Mean Maximum 404-02 Plasma Concentration (ng/mL) ± SEM: oral gavage
Protocol: Doses were prepared in sesame oil and individualized to body weight on the day of dosing. Blood was drawn prior to dosing and at 1, 2, 4, 8 and 24 hours post -dose on days 1 and 12. Blood samples were collected from the femoral artery/vein for determination of 404-02 plasma concentrations. Blood was placed in tubes containing K3EDTA and stored on ice until centrifugation at room temperature. The isolated plasma was transferred to cryovials and stored at −80° C. until sample processing and LC -MS/MS analysis. Extracted plasma standard curves were prepared from fresh stock solutions and analyzed prior to study samples.
Population mean pharmacokinetic parameter estimates were obtained by performing non-compartmental analysis of the 404-02 plasma concentration-versus-time data using WinNonlin™ software version 5.2.
Pharmacokinetic parameters obtained using non-compartmental analysis, WinNonlin™ version 5.2.
Pharmacokinetic parameters were obtained using non-compartmental analysis using WinNonlin™ version 5.2 software.

Structure (SMILES): CC1(C)CC[C@]2(C(=O)NCC(F)(F)F)CC[C@]3(C)[C@H](C(=O)C[C@@H]4[C@@]5(C)C=C(C#N)C(=O)C(C)(C)[C@@H]5CC[C@]43C)[C@@H]2C1 [Compound 63102, (4aS,6aR,6bR,8aR,12aR,12bR,14aR,14bS)-11-cyano-2,2,6a,6b,9,9,12a-heptamethyl-10,14-dioxo-N-(2,2,2-trifluoroethyl)-1,2,3,4,4a,5,6,6a,6b,7,8,8a,9,10,12a,12b,13,14,14a,14b-icosahydropicene-4a-carboxamide]
- TrxR1 mRNA induction: concentration needed compared with unsaturated counterpart (402, 404) [1]: higher concentrations
- Mean Maximum 404-02 Plasma Concentration (nM) ± SEM ([2]; 0.5 mg/kg/d, day 1, n=4): 3.4 ± 0.61 nM
- Mean Maximum 404-02 Plasma Concentration (ng/mL) ± SEM ([2]; 0.5 mg/kg/d, day 1, n=4): 1.95 ± 0.35 ng/mL
- Mean Maximum 404-02 Plasma Concentration (ng/mL) ± SEM ([2]; 0.5 mg/kg/d, day 12, n=4): 2.65 ± 0.6 ng/mL
- Mean Maximum 404-02 Plasma Concentration (nM) ± SEM ([2]; 0.5 mg/kg/d, day 12, n=4, listed as 404-02, 0.5 mg/kg/day): 4.6 nM and 4.6 ± 1.0 nM
- Mean Maximum 404-02 Plasma Concentration (nM) ± SEM ([2]; 5 mg/kg/d, day 1, n=4): 17.6 ± 6.6 nM
- Mean Maximum 404-02 Plasma Concentration (ng/mL) ± SEM ([2]; 5 mg/kg/d, day 1, n=4): 10.1 ± 3.8 ng/mL
- Mean Maximum 404-02 Plasma Concentration (ng/mL) ± SEM ([2]; 5 mg/kg/d, day 12, n=4): 7.3 ± 1.7 ng/mL
- Mean Maximum 404-02 Plasma Concentration (nM) ± SEM ([2]; 5 mg/kg/d, day 12, n=4, listed as 404-02, 5 mg/kg/day): 12.7 nM and 12.7 ± 2.9 nM
- Mean Maximum 404-02 Plasma Concentration (nM) ± SEM ([2]; 25 mg/kg/d, day 1, n=4): 29.3 ± 2.3 nM
- Mean Maximum 404-02 Plasma Concentration (ng/mL) ± SEM ([2]; 25 mg/kg/d, day 1, n=4): 16.8 ± 1.3 ng/mL
- Mean Maximum 404-02 Plasma Concentration (ng/mL) ± SEM ([2]; 25 mg/kg/d, day 12, n=4): 10.0 ± 3.7 ng/mL
- Mean Maximum 404-02 Plasma Concentration (nM) ± SEM ([2]; 25 mg/kg/d, day 12, n=4, listed as 404-02, 25 mg/kg/day): 17.5 nM and 17.5 ± 6.4 nM
- Mean Maximum 404-02 Plasma Concentration (nM) ± SEM ([2]; 75 mg/kg/d, day 1, n=4): 33.8 ± 4.7 nM
- Mean Maximum 404-02 Plasma Concentration (ng/mL) ± SEM ([2]; 75 mg/kg/d, day 1, n=4): 19.4 ± 2.7 ng/mL
- Mean Maximum 404-02 Plasma Concentration (nM) ± SEM ([2]; 75 mg/kg/d, day 12, n=4, listed as 404-02, 75 mg/kg/day): 48.6 nM
- increase in AUC0-24hr after 12 days of dosing compared to day 1 ([2]; oral, 75 mg/kg dose level): 1.6 fold
- accumulation (AUC day 12 vs day 1) ([2]; oral, other dose levels (0.5, 5, 25 mg/kg/day)): Accumulation was not observed
